# Literature values in patent publication US20160067227A1, “PHARMACEUTICAL COMBINATIONS FOR THE TREATMENT OF METABOLIC DISORDERS” (Boehringer Ingelheim International GmbH, priority 2012, published 2016).
# Conditions: metformin on its own, in the diabetic
smiles,measurement,value
CN(C)C(=N)N=C(N)N [metformin],average improvement in the HbA1c value,1.0-1.5%
